Results taken from patent US8613962B2, “Prophylactic or alleviating agent for peripheral nerve disorder induced by anti-cancer agent” (Kyushu University, National University Corporation, priority 2007, dated 2013).

Columns and labels:
[1] = tested on: rat peripheral nerve disorder induced by oxaliplatin; conditions: rats; oxaliplatin alone 4 mg/kg i.p.; second week; FIG. 6
[2] = tested on: rat peripheral nerve disorder induced by oxaliplatin; conditions: rats; oxaliplatin alone 4 mg/kg i.p. twice per week; second week; FIG. 5
PC12 cells = assay type: cell-based, rat; conditions: forskolin-induced, 10 ng/mL paclitaxel only, 168 hours, FIG. 3
DRG cells = assay type: cell-based, rat; conditions: 10 ng/mL paclitaxel only, 168 hours, FIG. 4
[3] = tested on: rat peripheral nerve disorder induced by paclitaxel; assay type: in vivo; conditions: SD male rats; paclitaxel alone 6 mg/kg i.p.; FIG. 2
[4] = tested on: rat peripheral nerve disorder induced by paclitaxel; assay type: in vivo; conditions: rats; paclitaxel alone
Experimental: 7 and 8-week-old SD male rats were used as experimental animals and separated into three groups of a control group, group administered with paclitaxel, and group administered with paclitaxel and the test substance (group administered with paclitaxel+test substance). To the group administered with paclitaxel, paclitaxel (6 mg/kg) was intraperitoneally administered once a week for 4 weeks in a total of 4 times. To the group administered with paclitaxel+test substance, the test substance (200 NU/kg) was orally administered three times a week, that is, just before the paclitaxel administration and on days 1 and 2 after the paclitaxel administration, for 4 weeks in a total of 12 times. To the control group, a solvent (polyoxyethylene castor oil:ethanol=1:1) used in the paclitaxel administration was similarly administered.

[5] = tested on: rat peripheral nerve disorder induced by paclitaxel; assay type: in vivo; conditions: SD male rats; paclitaxel alone 6 mg/kg i.p. once a week for 4 weeks; FIG. 1

## O=C1[O][Pt]2([NH][C@@H]3CCCC[C@H]3[NH]2)[O]C1=O [oxaliplatin]
[1]
  latent time to posterior foot avoidance (cold plate test, 4° C.): remarkably shortened
[2]
  50% reaction threshold value (von Frey test), compared with control group: remarkably lowered

## CC(=O)O[C@H]1C(=O)[C@@]2(C)[C@H]([C@H](OC(=O)c3ccccc3)[C@]3(O)C[C@H](OC(=O)[C@H](O)[C@@H](NC(=O)c4ccccc4)c4ccccc4)C(C)=C1C3(C)C)[C@]1(OC(C)=O)CO[C@@H]1C[C@@H]2O [paclitaxel]
PC12 cells
  neurite outgrowth (neurite length): inhibited
DRG cells
  neurite outgrowth (neurite length): inhibited
[3]
  latent time to avoidance reaction (acetone test, cold stimuli): remarkably shortened
[4]
  latent time (plantar test, heat stimuli): not shortened
[5]
  50% reaction threshold value (von Frey test), compared with control group: remarkably lowered
